Melting point and IC50 data for 29 compounds are collected here from US6348468B1, “Pyridazine compounds and compositions containing the same” (Kowa Co., Ltd., priority 1997, dated 2002).

The structures appear in SMILES notation.

A word on the melting point: it is the temperature, or range, at which the solid turns liquid. By IC50 is commonly meant the concentration at which inhibition is half-maximal. High values mean a need for much substance, low ones inhibition by little substance.

System in one data set: not given
Assay: not given
Conditions: not given
In turn, `CS(=O)(=O)c1ccc(-c2nn(Cc3ccccc3)c(=S)cc2-c2ccc(F)cc2)cc1` [Example 139, 2-benzyl-5-(4-fluorophenyl)-6-[4-(methylsulfonyl)phenyl]-2H-pyridazine-3-thione] returned a melting point of 181.8 to 182 °C.

For the compound `COc1ccc(Cn2nc(-c3ccc(SC)cc3)c(-c3ccc(F)cc3)cc2=S)cc1` [Example 140, 5-(4-fluorophenyl)-2-(4-methoxybenzyl)-6-(4-(methylthio)phenyl]-2H-pyridazine-3-thione], the melting point was in the range of 112.7 to 112.9 °C.

In turn, `CSc1ccc(-c2nn(Cc3ccc(Cl)cc3Cl)c(=S)cc2-c2ccc(F)cc2)cc1` [Example 141, 2-(2,4-dichlorobenzyl)-5-(4-fluorophenyl)-6-[4-(methylthio)phenyl]-2H-pyridazine-3-thione] showed a melting point of 154 to 154.2 °C.

Consider `COc1ccc(-c2cc(=O)n(Cc3ccccc3)nc2-c2ccc(OC)c(F)c2)cc1` [Example 144, 2-benzyl-6-(3-fluoro-4-methoxyphenyl)-5-(4-methoxyphenyl)-2H-pyridazin-3-one], for which the melting point was 136.6 to 137.8 °C.

For the compound `COc1ccc(-c2cc(=O)n(CC=Cc3ccc(Cl)cc3)nc2-c2ccc(OC)c(F)c2)cc1` [Example 145, 2-(4-chlorocinnamyl)-6-(3-fluoro-4-methoxyphenyl)-5-(4-methoxyphenyl)-2H-pyridazin-3-one], the melting point is 144 to 145.4 °C.

For the compound `CCn1nc(-c2ccc(OC)c(F)c2)c(-c2ccc(OC)cc2)cc1=O` [Example 146, 2-ethyl-6-(3-fluoro-4-methoxyphenyl)-5-(4-methoxyphenyl)-2H-pyridazin-3-one], the melting point lay within 122.6 to 123.5 °C.

Consider `COc1ccc(-c2cc(=O)n(CC(C)C)nc2-c2ccc(OC)c(F)c2)cc1` [Example 147, 6-(3-fluoro-4-methoxyphenyl)-2-isobutyl-5-(4-methoxyphenyl)-2H-pyridazin-3-one], for which the melting point lay within 86.8 to 87.4 °C.

In turn, `COc1ccc(-c2cc(=O)n(CC3CC3)nc2-c2ccc(OC)c(F)c2)cc1` [Example 148, 2-cyclopropylmethyl-6-(3-fluoro-4-methoxyphenyl)-5-(4-methoxyphenyl)-2H-pyridazin-3-one] showed a melting point of 132.2 to 132.6 °C.

As for `COc1ccc(C2=NNC(=O)CC2c2ccc(OC)c(F)c2)cc1` (centres unmarked) [Example 149, 4,5-dihydro-5-(3-fluoro-4-methoxyphenyl)-6-(4-methoxyphenyl)-2H-pyridazin-3-one], the melting point is 171.2 to 173.4 °C.

`COc1ccc(-c2n[nH]c(=O)cc2-c2ccc(OC)c(F)c2)cc1` [Example 150, 5-(3-fluoro-4-methoxyphenyl)-6-(4-methoxyphenyl)-2H-pyridazin-3-one]: the melting point was 212.8 to 213.4 °C.

As for `COc1ccc(-c2nn(Cc3ccccc3)c(=O)cc2-c2ccc(OC)c(F)c2)cc1` [Example 151, 2-benzyl-5-(3-fluoro-4-methoxyphenyl)-6-(4-methoxyphenyl)-2H-pyridazin-3-one], the melting point is 109.6 to 111.6 °C.

`COc1ccc(-c2nn(CC=Cc3ccc(Cl)cc3)c(=O)cc2-c2ccc(OC)c(F)c2)cc1` [Example 152, 2-(4-chlorocinnamyl)-5-(3-fluoro-4-methoxyphenyl)-6-(4-methoxyphenyl)-2H-pyridazin-3-one] had a melting point of 109.2 to 111 °C.

For the compound `CCn1nc(-c2ccc(OC)cc2)c(-c2ccc(OC)c(F)c2)cc1=O` [Example 153, 2-ethyl-5-(3-fluoro-4-methoxyphenyl)-6-(4-methoxyphenyl)-2H-pyridazin-3-one], the melting point is 161.7 to 162.2 °C.

In turn, `COc1ccc(-c2nn(CC(C)C)c(=O)cc2-c2ccc(OC)c(F)c2)cc1` [Example 154, 5-(3-fluoro-4-methoxyphenyl)-2-isobutyl-6-(4-methoxyphenyl)-2H-pyridazin-3-one] came in with a melting point of 124.6 to 125 °C.

`COc1ccc(-c2nn(CC3CC3)c(=O)cc2-c2ccc(OC)c(F)c2)cc1` [Example 155, 2-cyclopropylmethyl-5-(3-fluoro-4-methoxyphenyl)-6-(4-methoxyphenyl)-2H-pyridazin-3-one] showed a melting point of 135.2 to 135.7 °C.

With `COc1ccc(C2=NNC(=O)CC2c2ccc(OC)c(F)c2)cc1F` (centres unmarked) [Example 156, 5,6-bis(3-fluoro-4-methoxyphenyl)-4,5-dihydro-2H-pyridazin-3-one], the melting point was in the range of 195.7 to 197.7 °C.

On to `COc1ccc(-c2cc(=O)[nH]nc2-c2ccc(OC)c(F)c2)cc1F` [Example 157, 5,6-bis(3-fluoro-4-methoxyphenyl)-2H-pyridazin-3-one], for which the melting point is 204.8 to 205.7 °C.

Take `COc1ccc(-c2cc(=O)n(Cc3ccccc3)nc2-c2ccc(OC)c(F)c2)cc1F` [Example 158, 2-benzyl-5,6-bis(3-fluoro-4-methoxyphenyl)-2H-pyridazin-3-one]: the melting point lay in the range of 114.1 to 115.2 °C.

Take `COc1ccc(-c2cc(=O)n(CC=Cc3ccc(Cl)cc3)nc2-c2ccc(OC)c(F)c2)cc1F` [Example 159, 5,6-bis(3-fluoro-4-methoxyphenyl)-2-(4-chlorocinnamyl)-2H-pyridazin-3-one]: the melting point lay within 72.5 to 74.9 °C.

The compound `COc1ccc(-c2cc(=O)n(CC(C)C)nc2-c2ccc(OC)c(F)c2)cc1F` [Example 161, 5,6-bis(3-fluoro-4-methoxyphenyl)-2-isobutyl-2H-pyridazin-3-one] yielded a melting point of 154 to 154.5 °C.

Consider `COc1ccc(-c2cc(=O)n(CC3CC3)nc2-c2ccc(OC)c(F)c2)cc1F` [Example 162, 5,6-bis(3-fluoro-4-methoxyphenyl)-2-cyclopropylmethyl-2H-pyridazin-3-one], for which the melting point lay in the range of 142.3 to 142.7 °C.

For a further data set, the system named is Interleukin-1β (IL-1β) Production. The data set can be described thus: Inhibitory activity against interleukin-1β production (LPS-stimulated HL-60 cells, ELISA). Type of data set: cell-based. The note with it: Homo sapiens, 72 h, lipopolysaccharide 10 μg/ml, culturing for 3 days. As for the experimental part: HL-60 cells were cultured for 4 days until confluence on RPMI 1640 medium with 10% fetal bovine serum (FBS) added thereto. The HL-60 cells were centrifuged. The supernatant was discarded, and the cells were then suspended at 1×10^6 cells/ml on RPMI 1640 medium with 3% FBS, and lipopolysaccharide was added to give a final concentration of 10 μg/ml. The culture was inoculated at 1 ml/well to a 24-well plate. A test sample was added at 1 μl/well, followed by culturing for 3 days. Three days later, the amount of interleukin-1β in each of the cultures was measured by ELISA. Its IC50 value was determined by a comparison in yield with a control to which no test sample was added.
For orientation: An ELISA detects its analyte on a solid surface through an enzyme-linked reagent.
Compound `COc1ccc(-c2cc(=O)n(CCN(C)C)nc2-c2ccc(OC)cc2)cc1` [Comp. Comp'd 3, reference compound] came in with a concentration for half-maximal inhibition (IC50) of over 100000 nM.

Consider `COc1ccc(-c2cc(=O)[nH]nc2-c2ccc(OC)cc2)cc1` [Comp. Comp'd 4, reference compound], for which half-maximal inhibition (IC50) was put at 31600 nM.

In the case of `COc1ccc(-c2cc(=O)n(CC=Cc3ccc(Cl)cc3)nc2-c2ccc(OC)cc2)cc1` [Example 12, 5,6-bis(4-methoxyphenyl)-2-(4-chlorocinnamyl)-2H-pyridazin-3-one], it took 100 nM to reach half-maximal inhibition (IC50).

`COc1ccc(-c2cc(=O)n(Cc3ccccc3)nc2-c2ccc(OC)cc2)cc1` [Example 13, 5,6-bis(4-methoxyphenyl)-2-benzyl-2H-pyridazin-3-one] had an IC50 of 260 nM.

Compound `COc1ccc(Cn2nc(-c3ccc(OC)cc3)c(-c3ccc(OC)cc3)cc2=O)cc1` [Example 14, 5,6-bis(4-methoxyphenyl)-2-(4-methoxybenzyl)-2H-pyridazin-3-one] returned an IC50 of 94 nM.

In turn, `COc1ccc(-c2cc(=O)n(Cc3cc(OC)c(OC)c(OC)c3)nc2-c2ccc(OC)cc2)cc1` [Example 16, 5,6-bis(4-methoxyphenyl)-2-(3,4,5-trimethoxybenzyl)-2H-pyridazin-3-one] displayed an IC50 of 230 nM.

Compound `COc1ccc(-c2cc(=O)n(CCCc3ccccc3)nc2-c2ccc(OC)cc2)cc1` [Example 19, 5,6-bis(4-methoxyphenyl)-2-(3-phenylpropyl)-2H-pyridazin-3-one] returned an IC50 of 79 nM.

Compound `COc1ccc(CCCn2nc(-c3ccc(OC)cc3)c(-c3ccc(OC)cc3)cc2=O)cc1` [Example 23, 5,6-bis(4-methoxyphenyl)-2-[3-(4-methoxyphenyl)propyl]-2H-pyridazin-3-one] returned an IC50 of 360 nM.
